Source: publication PMC6672008, “Small molecule degraders of the hepatitis C virus protease reduce susceptibility to resistance mutations” (Nature Communications, 2019)
“And” between values parts separate entries of the source, which are not always exact repeats. Identical values can stand only once. “Also recorded” adds a separate entry of the source. Like-named read-outs stand apart in the source and are kept apart here.

How the values were obtained:
DDB1∆B-CRBN = DDB1∆B-CRBN (Homo sapiens, UniProt Q96SW2); assay: CRBN-binding assay (fluorescence polarization, displacement of Atto565-lenalidomide); settings: fluorescence polarization competition
Description: Measurement of compounds binding to CRBN was performed by fluorescence polarization. […] Compounds were dispensed using a D300e Digital Dispenser (HP), normalized to 1% DMSO, and incubated for 60 min at room temperature. The change in fluorescence polarization was monitored using a PHERAstar FS microplate reader (BMG Labtech) for 20 min in 200 s cycles. […]
Increasing concentrations of compounds were titrated to preformed DDB1∆B-CRBN-lenalidomideAtto565 complex. Data are presented as means normalized to DMSO ± standard deviation of n = 4 technical replicates. […]
d Measurement of NS3/4A protease inhibition in vitro. Cell lysates containing the endogenous NS3/4A protease were prepared from cells stably expressing an HCV […]
subgenomic replicon. […]

[1] = Cytotoxicity assay (CellTiter-Glo, 24 h); assay type: cell-based; settings: human, CC50 (50% loss of viability)
[2] = molecular target: HCV NS3-eGFP protein fusion (Hepatitis C virus genotype 2a, UniProt Q99IB8); assay type: cell-based; settings: for NS3-eGFP/mCherry ratio normalized to DMSO, average / NS3-eGFP/mCherry ratio normalized to DMSO, single experiments: Supplementary Fig. 4c; for DC50: 4 h treatment
Huh7.5-SGR cells = assay: Cytotoxicity assay (CellTiter-Glo, 24 h); assay type: cell-based; settings: read-out: CC50 (50% loss of viability), single experiments, individual experiments
HCV-NS3-V55A = assay: microbe, parasite or virus in culture; assay type: cell-based, hepatitis C virus
wildtype HCV-Jc1 = assay: microbe, parasite or virus in culture; assay type: cell-based, hepatitis C virus
HCV-JFH1-ad = assay: microbe, parasite or virus in culture; assay type: cell-based, hepatitis C virus
HCV-NS3-A156S = assay: microbe, parasite or virus in culture; assay type: cell-based, hepatitis C virus
HCV NS3 = HCV NS3 (Hepatitis C virus genotype 2a, UniProt Q99IB8); assay type: cell-based; settings: percentage of DMSO-treated control, 1000 nM (legend; picture prints 500nM)
CRBN = CRBN (Homo sapiens, UniProt Q96SW2); assay: Competitive displacement assay for cellular CRBN engagement (rescue of dBET6-mediated BRD4BD2-eGFP degradation); assay type: cell-based; settings: co-treated with 100 nM dBET6, 5 h
[3] = average value reported, averaged from n = 2
[4] = single experiments, individual experiments
[5] = 500 nM compound + 500 nM lenalidomide, 4 h
[6] = 500 nM compound + 5000 nM lenalidomide, 4 h
[7] = read-out: antiviral IC50 (50% reduction in viral titers), single experiments, Huh7.5, MOI 0.1, treated 24 to 48 h post-infection, individual experiments
[8] = Huh7.5 CRBN-/-, HCV-JFH1-ad MOI 0.1, 24 to 48 h post-infection
[9] = wildtype Huh7.5, HCV-JFH1-ad MOI 0.1, 24 to 48 h post-infection

SMILES: CCC[C@H](NC(=O)[C@@H]1[C@H]2CCC[C@H]2CN1C(=O)[C@@H](NC(=O)[C@@H](NC(=O)c1cnc(C(=O)NCCOCCOCCNc2cccc3c2C(=O)N(C2CCC(=O)N(C)C2=O)C3=O)cn1)C1CCCCC1)C(C)(C)C)C(=O)C(=O)NC1CC1 (stereo partly shown) [DGY-04-035-BUMP]
- binding to CRBN (in words) (DDB1∆B-CRBN): Neither DGY-04-035-BUMP nor DGY-08-097-BUMP exhibit detectable binding to CRBN; also recorded: loss of CRBN-binding
- CC50 at 24 h [1, 3]: > 40 µM
- CC50 at 24 h [1, 4]: > 40 µM
- NS3-eGFP/mCherry ratio normalized to DMSO, average [2, 5]: 0.98
- NS3-eGFP/mCherry ratio normalized to DMSO, single experiments [2, 5]: 0.98 and 0.99
- NS3-eGFP/mCherry ratio normalized to DMSO, average [2, 6]: 0.98
- NS3-eGFP/mCherry ratio normalized to DMSO, single experiments [2, 6]: 1.00 and 0.97
- NS3-eGFP/mCherry ratio normalized to DMSO, average ([2]; 500 nM compound + DMSO, 4 h): 0.98
- NS3-eGFP/mCherry ratio normalized to DMSO, single experiments ([2]; 500 nM compound + DMSO, 4 h): 0.98 and 0.99
- degradation of HCV NS3 in the transient assay (in words) ([2]; 4 h, increasing concentrations): neither compound induced degradation of HCV NS3

SMILES: CCC[C@H](NC(=O)[C@@H]1[C@H]2CCC[C@H]2CN1C(=O)[C@@H](NC(=O)[C@@H](NC(=O)c1cnccn1)C1CCCCC1)C(C)(C)C)C(=O)C(=O)NC1CC1 [telaprevir, reference compound]
- CC50 at 24 h [1, 3]: 28 µM
- CC50 at 24 h [1, 4]: 32 µM
- CC50 (Huh7.5-SGR cells): > 40 µM and 24 µM
- IC50 (HCV-NS3-V55A; Hepatitis C virus, Huh7.5, read-out: antiviral IC50, NS3-V55A virus, average value reported, Huh7.5, MOI 0.1, treated 24 to 48 h post-infection): 0.288 µM
- IC50 (HCV-NS3-V55A; Hepatitis C virus, Huh7.5, read-out: antiviral IC50, NS3-V55A virus, single experiments, Huh7.5, MOI 0.1, treated 24 to 48 h post-infection): 0.19 µM
- change in antiviral potency, NS3-V55A vs wildtype (HCV-NS3-V55A; ratio of IC50 values): 3 fold
- IC50 (HCV-NS3-V55A; read-out: antiviral IC50, NS3-V55A virus, single experiments, Huh7.5, MOI 0.1, treated 24 to 48 h post-infection): 0.304 µM and 0.372 µM
- IC50 (wildtype HCV-Jc1; Hepatitis C virus, Huh7.5, read-out: antiviral IC50, wildtype virus, average value reported, Huh7.5, MOI 0.1, treated 24 to 48 h post-infection): 0.098 µM
- IC50 (wildtype HCV-Jc1; Hepatitis C virus, Huh7.5, read-out: antiviral IC50, wildtype virus, single experiments, Huh7.5, MOI 0.1, treated 24 to 48 h post-infection): 0.11 µM
- IC50 (wildtype HCV-Jc1; read-out: antiviral IC50, wildtype virus, single experiments, Huh7.5, MOI 0.1, treated 24 to 48 h post-infection): 0.072 µM and 0.111 µM
- IC50 (HCV-JFH1-ad; Hepatitis C virus, Huh7.5, read-out: antiviral IC50 (50% reduction in viral titers), average value reported, Huh7.5, MOI 0.1, treated 24 to 48 h post-infection, average of n ≥ 2 experiments): 0.132 µM
- IC50 (HCV-JFH1-ad; [7]): 0.114 µM and 0.091 µM and 0.086 µM and 0.236 µM
- IC50 (HCV-NS3-A156S; Hepatitis C virus, Huh7.5, read-out: antiviral IC50, NS3-A156S virus, average value reported, Huh7.5, MOI 0.1, treated 24 to 48 h post-infection): 0.949 µM
- IC50 (HCV-NS3-A156S; Hepatitis C virus, Huh7.5, read-out: antiviral IC50, NS3-A156S virus, single experiments, Huh7.5, MOI 0.1, treated 24 to 48 h post-infection): 0.756 µM
- change in antiviral potency, NS3-A156S vs wildtype (HCV-NS3-A156S; ratio of IC50 values): 10 fold
- IC50 (HCV-NS3-A156S; read-out: antiviral IC50, NS3-A156S virus, single experiments, Huh7.5, MOI 0.1, treated 24 to 48 h post-infection): 1.14 µM

SMILES: CCC[C@H](NC(=O)[C@@H]1[C@H]2CCC[C@H]2CN1C(=O)[C@@H](NC(=O)[C@@H](NC(=O)c1cnc(C(=O)NCCOCCOCCNc2cccc3c2C(=O)N(C2CCC(=O)NC2=O)C3=O)cn1)C1CCCCC1)C(C)(C)C)C(=O)C(=O)NC1CC1 (stereo partly shown) [DGY-04-035]
- relative NS3 levels (normalized to GAPDH), CRBN-/- cells, average (HCV NS3; [8]): 87%
- relative NS3 levels (normalized to GAPDH), CRBN-/- cells, single experiments (HCV NS3; [8]): 107% and 74% and 80%
- relative NS3 levels (normalized to GAPDH), wildtype cells, average (HCV NS3; [9]): 48%
- relative NS3 levels (normalized to GAPDH), wildtype cells, single experiments (HCV NS3; [9]): 54% and 46% and 44%
- EC50 (CRBN): 0.641 µM
- CC50 at 24 h [1, 3]: > 40 µM
- CC50 at 24 h [1, 4]: > 40 µM
- NS3-eGFP/mCherry ratio normalized to DMSO, average [2, 5]: 0.66
- NS3-eGFP/mCherry ratio normalized to DMSO, single experiments [2, 5]: 0.67 and 0.64
- NS3-eGFP/mCherry ratio normalized to DMSO, average [2, 6]: 0.86
- NS3-eGFP/mCherry ratio normalized to DMSO, single experiments [2, 6]: 0.87 and 0.85
- NS3-eGFP/mCherry ratio normalized to DMSO, average ([2]; 500 nM compound + DMSO, 4 h): 0.54
- NS3-eGFP/mCherry ratio normalized to DMSO, single experiments ([2]; 500 nM compound + DMSO, 4 h): 0.54 and 0.53
- DC50 ([2]; read-out: NS3-eGFP degradation DC50, average value reported, average of n ≥ 2 independent experiments): 0.489 µM
- DC50 ([2]; read-out: NS3-eGFP degradation DC50, single experiments, individual experiments (source data)): 0.444 µM and 0.438 µM and 0.379 µM and 0.65 µM and 0.532 µM
- IC50 (HCV-JFH1-ad; Hepatitis C virus, Huh7.5, read-out: antiviral IC50 (50% reduction in viral titers), single experiments, Huh7.5, MOI 0.1, treated 24 to 48 h post-infection, individual experiments): 2.16 µM
- IC50 (HCV-JFH1-ad; [7]): 2.65 µM and 3.95 µM
